Test results from patent US11001563B2, “SSAO inhibitor” (SHANDONG DANHONG PHARMACEUTICAL CO., LTD., priority 2017, dated 2021).

These molecules were tested against T1, VAP-1/SSAO (Homo sapiens (Human), UniProt Q16853) (assay: Human VAP-1 enzyme activity assay (Amplex Red Monoamine Oxidase kit)). Settings: 10 nM VAP-1 enzyme, 30 min preincubation, benzylamine substrate; read-out: Human Recombinant VAP-1/SSAO Enzyme Inhibitory Activity IC50.
Format: biochemical
Procedure: Human VAP-1 enzyme activity assay:
The inhibition of the sample on VAP-enzyme activity was measured by using an Amplex® Red Monoamine Oxidase kit (Invitrogen #A12214). 100 nL of the gradiently-diluted to-be-tested compound (solvent DMSO) was added to a 384-well plate. 25 μL of 10 nM VAP-1 enzyme solution was added and incubated for 30 minutes at room temperature. A substrate mixture of VAP-1 enzyme (200 μM Amplex Red, 1 U/mL HRP, 1 mM Benzylamine) was added and incubated for 60 minutes at room temperature. After the incubation, the fluorescent signal was read with a microplate reader Envision (excitation light wavelength 530-560 nm, emission light wavelength 590 nm). The fluorescence signal value after the background signal was removed was analyzed by Prism software, and the IC50 of the sample against the VAP-1 enzyme was calculated.

T1 sequence (Q16853 whole entry): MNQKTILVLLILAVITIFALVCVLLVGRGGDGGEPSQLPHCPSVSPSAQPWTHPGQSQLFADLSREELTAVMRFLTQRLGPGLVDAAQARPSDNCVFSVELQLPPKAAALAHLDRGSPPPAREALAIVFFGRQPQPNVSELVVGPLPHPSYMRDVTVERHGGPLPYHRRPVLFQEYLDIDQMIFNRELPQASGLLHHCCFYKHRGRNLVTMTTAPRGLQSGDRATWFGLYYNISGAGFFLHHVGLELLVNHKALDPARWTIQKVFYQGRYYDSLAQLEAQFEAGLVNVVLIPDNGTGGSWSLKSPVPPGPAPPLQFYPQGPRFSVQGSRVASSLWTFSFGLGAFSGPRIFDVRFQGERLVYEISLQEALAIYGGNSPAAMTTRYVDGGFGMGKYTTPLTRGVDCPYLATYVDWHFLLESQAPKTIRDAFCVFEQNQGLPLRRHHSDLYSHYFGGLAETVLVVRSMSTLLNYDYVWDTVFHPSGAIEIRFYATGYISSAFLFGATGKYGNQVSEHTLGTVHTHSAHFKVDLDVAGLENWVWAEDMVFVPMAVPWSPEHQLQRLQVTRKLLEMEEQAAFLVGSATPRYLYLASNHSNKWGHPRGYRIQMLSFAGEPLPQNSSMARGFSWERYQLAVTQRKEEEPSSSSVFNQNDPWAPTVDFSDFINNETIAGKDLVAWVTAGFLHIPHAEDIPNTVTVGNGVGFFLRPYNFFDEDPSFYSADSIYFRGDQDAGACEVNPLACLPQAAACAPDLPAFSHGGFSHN

Row | SMILES | IC50 [nM]
1 | NC/C(=C\F)COc1ccc(-c2nnc(NC3CC3)o2)cc1 [WX079] | 0.2
2 | NC/C(=C\F)COc1ccc(-c2nc(C3CC3(F)F)n[nH]2)cc1 (centres unmarked) [WX096] | 0.8
3 | Cc1cnoc1-c1ccc(OC/C(=C/F)CN)cc1 [WX040] | 0.5
4 | NC/C(=C\F)COc1ccc(-c2nc(NC3CC3)n[nH]2)cc1 [WX081] | 0.5
5 | CC(C)(C)c1noc(-c2ccc(OC/C(=C/F)CN)cc2)n1 [WX019] | 2
6 | Cn1nc(-c2ccc(OC/C(=C/F)CN)cc2Cl)nc1N1CCOCC1 [WX107] | 0.9
7 | Cc1nc(-c2ccc(OC/C(=C/F)CN)cc2)no1 [WX028] | 0.7
8 | NC/C(=C\F)COc1ccc(-c2nc(C3CC3)n(CC(F)(F)F)n2)cc1 [WX113] | 1.1
9 | NC/C(=C\F)COc1ccc(-c2nc(C3CC3)n[nH]2)cc1 [WX034] | 0.8
10 | NC/C(=C\F)COc1ccc(-c2nc(C3CCC3)n[nH]2)cc1 [WX085] | 0.2
11 | CC(C)n1nc(-c2ccc(OCC(=CF)CN)cc2)nc1C1(F)CC1 [WX130] | 1.4
12 | Cc1n[nH]c(-c2ccc(OC/C(=C/F)CN)cc2)n1 [WX009] | 3.7
13 | NC/C(=C\F)COc1ccc(-c2nc(C3CCCC3)n[nH]2)cc1 [WX064] | 0.8
14 | NC/C(=C\F)COc1ccc(-c2nc(NC3CC3)no2)cc1 [WX082] | 0.3
15 | NC/C(=C\F)COc1ccc(-c2nnn(C3CC3)n2)cc1 [WX049] | 0.3
16 | NC/C(=C\F)COc1ccc(-c2ncccn2)cc1 [WX021] | 0.3
17 | Cn1nc(C(C)(C)C)nc1-c1ccc(OC/C(=C/F)CN)cc1 [WX089] | 1.9
18 | CCn1nc(C2(F)CC2)nc1-c1ccc(OC/C(=C/F)CN)cc1 [WX118] | 0.7
19 | Cc1coc(-c2ccc(OC/C(=C/F)CN)cc2)n1 [WX039] | 0.5
20 | NC/C(=C\F)COc1ccc(-c2nc(N)no2)cc1 [WX074] | 1
21 | NC/C(=C\F)COc1ccc(-c2nc3ccc(Cl)cc3[nH]2)cc1 [WX054] | 0.4
22 | CC(C)(C)C(=O)Nc1noc(-c2ccc(OC/C(=C/F)CN)cc2)n1 [WX077] | 1.6
23 | NC/C(=C\F)COc1ccc(-c2nc(C(F)(F)F)n[nH]2)cc1 [WX036] | 4.6
24 | CC1(C)CN=C(c2ccc(OC/C(=C/F)CN)cc2)N1 [WX106] | 1.1
25 | Cc1nnc(-c2ccc(OC/C(=C/F)CN)cc2)o1 [WX004] | 2.5
26 | Cn1nc(-c2ccc(OC/C(=C/F)CN)cc2)nc1C1(F)CC1 [WX127] | 0.8

Row | SMILES | IC50 [nM]
27 | NC/C(=C\F)COc1ccc(-c2nc(N3CCOCC3)cs2)cc1 [WX086] | 9.9
28 | CCCc1n[nH]c(-c2ccc(OC/C(=C/F)CN)cc2)n1 [WX097] | 0.5
29 | CC(C)n1nc(-c2ccc(OC/C(=C/F)CN)cc2)nc1N1CCOCC1 [WX123] | 2.2
30 | NC/C(=C\F)COc1ccc(-c2nc(N3CCOCC3)n[nH]2)cc1 [WX073] | 0.9
31 | Cc1ncc(-c2ccc(OC/C(=C/F)CN)cc2)s1 [WX024] | 0.3
32 | CC(C)(C)c1n[nH]c(-c2ccc(OC/C(=C/F)CN)cc2)n1 [WX035] | 2.3
33 | CCn1nc(-c2ccc(OC/C(=C/F)CN)cc2)nc1C1(F)CC1 [WX129] | 1
34 | Cn1nc(-c2ccc(OC/C(=C/F)CN)cc2)nc1C1CCOCC1 [WX095] | 2.9
35 | Cn1nc(C2CC2)nc1-c1ccc(OC/C(=C/F)CN)cc1 [WX076] | 2.1
36 | NC/C(=C\F)COc1ccc(-c2nc(CC3CCCC3)n[nH]2)cc1 [WX103] | 0.2
37 | NC/C(=C\F)COc1ccc(-c2nc(C3CC3)no2)cc1 [WX016] | 1
38 | NC/C(=C\F)COc1cc(F)c(-c2nc(N3CCOCC3)n[nH]2)c(F)c1 [WX099] | 3.4
39 | Cn1ncc(-c2ccc(OC/C(=C/F)CN)cc2)n1 [WX026] | 0.3
40 | CCn1nc(-c2ccc(OC/C(=C/F)CN)cc2)nc1C1CC1 [WX092] | 1.4
41 | NC/C(=C\F)COc1ccc(-c2nc(N3CCOCC3)n[nH]2)c(F)c1 [WX100] | 1.1
42 | CCn1nc(-c2ccc(OC/C(=C/F)CN)cc2)nc1C(F)F [WX128] | 1
43 | Cc1cn[nH]c1-c1ccc(OC/C(=C/F)CN)cc1 [WX041] | 0.6
44 | Cn1nc(-c2ccc(OC/C(=C/F)CN)cc2)nc1N1CCOCC1 [WX122] | 1
45 | Cn1nc(-c2ccc(OC/C(=C/F)CN)cc2)nc1C1CC1 [WX075] | 0.7
46 | Cc1csc(-c2ccc(OC/C(=C/F)CN)cc2)n1 [WX022] | 0.3
47 | CS(=O)(=O)n1nc(C2CC2)nc1-c1ccc(OC/C(=C/F)CN)cc1 [WX062] | 1.2
48 | NC/C(=C\F)COc1ccc(-c2nc(C(F)F)n[nH]2)cc1 [WX088] | 0.4
49 | NC/C(=C\F)COc1ccc(-c2nc(-c3ccccc3)no2)cc1 [WX017] | 0.8
50 | NC/C(=C\F)COc1ccc(-c2nc3ccccc3o2)cc1 [WX023] | 0.4
51 | COc1ccc(Cn2nc(-c3ccc(OC/C(=C/F)CN)cc3)nc2NC2CC2)cc1 [WX080] | 3.8
52 | CC(C)n1nc(-c2ccc(OC/C(=C/F)CN)cc2)nc1C1CC1 [WX091] | 1.2

Row | SMILES | IC50 [nM]
53 | NC/C(=C\F)COc1ccc(-c2n[nH]c(C(CO)CCl)n2)cc1 (centres unmarked) [WX083] | 0.4
54 | CC(C)n1nc(C(F)F)nc1-c1ccc(OC/C(=C/F)CN)cc1 [WX109] | 2.8
55 | NC/C(=C\F)COc1ccc(-c2nc(C3CC3)n[nH]2)c(F)c1 [WX094] | 0.3
56 | NC/C(=C\F)COc1ccc(-c2nc(C(N)=O)n[nH]2)cc1 [WX072] | 0.7
57 | NC/C(=C\F)COc1ccc(-c2nc(C3(F)CC3)n[nH]2)cc1 [WX087] | 0.3
58 | CC(C)(C)n1nnc(-c2ccc(OC/C(=C/F)CN)cc2)n1 [WX048] | 0.6
59 | CCn1nnc(-c2ccc(OC/C(=C/F)CN)cc2)n1 [WX014] | 0.8
60 | NC/C(=C\F)COc1ccc(-c2nc(C3CC3)no2)c(Cl)c1 [WX056] | 1.7
61 | Cc1nc(-c2ccc(OC/C(=C/F)CN)cc2)sc1C [WX111] | 0.4
62 | NC/C(=C\F)COc1ccc(-c2nc(C3CCOCC3)n[nH]2)cc1 [WX093] | 0.3
63 | CC(C)(C)c1nc(-c2ccc(OC/C(=C/F)CN)cc2)no1 [WX045] | 1.1
64 | CC(C)n1nc(-c2ccc(OC/C(=C/F)CN)cc2)nc1C(F)F [WX124] | 1.4
65 | NC/C(=C\F)COc1ccc(-c2nccc(N3CCOCC3)n2)cc1 [WX070] | 1.1
66 | Cn1nc(C2(F)CC2)nc1-c1ccc(OC/C(=C/F)CN)cc1 [WX117] | 0.7
67 | Cn1nc(-c2ccc(OC/C(=C/F)CN)cc2)nc1CC(F)(F)F [WX105] | 0.5
68 | Cc1nc(-c2ccc(OC/C(=C/F)CN)cc2)sc1N1CCOCC1 [WX102] | 0.4
69 | NC/C(=C\F)COc1ccc(N2C(=O)C(=O)c3ccccc32)cc1 [WX052] | 1.3
70 | CC(C)(C)NC(=O)c1noc(-c2ccc(OC/C(=C/F)CN)cc2)n1 [WX042] | 1.6
71 | Cn1nc(-c2ccc(OC/C(=C/F)CN)cc2)nc1C(C)(C)C [WX090] | 1.1
72 | Cn1nc(CC(F)(F)F)nc1-c1ccc(OC/C(=C/F)CN)cc1 [WX104] | 0.3
73 | CCn1nc(-c2ccc(OC/C(=C/F)CN)cc2)nc1N1CCOCC1 [WX125] | 1
74 | NC/C(=C\F)COc1ccc(-c2nc(C3CC3)n(CCO)n2)cc1 [WX112] | 1.7
75 | NC/C(=C\F)COc1ccc(-c2noc3ccccc23)cc1 [WX033] | 0.3
76 | NC/C(=C\F)COc1ccc(-c2noc(C3CC3)n2)cc1 [WX044] | 0.5
77 | Cn1cnc(-c2ccc(OC/C(=C/F)CN)cc2)n1 [WX025] | 0.9

What follows are molecules tested against T1, VAP-1/SSAO (assay: VAP-1 cell activity assay (HUVEC or CHO cells transfected with VAP-1/pCDNA (3.1) plasmid, Amplex Red)). Settings: HUVEC or CHO cells transfected with VAP-1 plasmid; read-out: VAP-1/SSAO Cellular Inhibitory Activity IC50.
Format: cell-based
Procedure: The inhibition of the sample on VAP-1 cell activity was measured by using an Amplex® Red Monoamine Oxidase kit (Invitrogen #A12214).
The cultured HUVEC or CHO cells were plated into a 6-well plate at a density of 0.8 M/well, placed in a 37° C., 5% CO2 incubator for incubation for 24 hours, and then the cells was transferred with a Lipo2000 reagent and a VAP-1/pCDNA (3.1) plasmid, and liquid was changed for the cells after 5 hours (Lipo2000 was toxic to the cells); after 24 hours, the cells were digested and plated into 384-well plates with a density of 25 μl, 10000 cells/well, and liquid was replaced with medium without FBS for the cells after 6-7 hours, and the cell plates were incubated overnight at 37° C. in a 5% CO2 incubator.
1) Dilution of the compound: serial dilution in 4× gradient was carried out with 100% DMSO, 10 points were diluted, the starting concentration of the to-be-tested compound was 0.5 mM (final concentration was 1 μM); 100 nl of compound solution was transferred to a 384-well cell assay plate with ECHO. Negative control wells: 100 nl of DMSO; background control wells: 100 nl DMSO+25 μL medium.
2) The reaction was carried out in the dark at room temperature for 30 min.
3) Preparation of Amplex Red reagent+HRP+benzylamine substrate working solution: Amplex Red reagent+HRP+benzylamine substrate working solution (200 μM Amplex Red reagent+1 U/mL HRP+1 mM benzylamine): 45 μl of 20 mM Amplex Red reagent mother solution, 22.5 μl of 200 U/ml horseradish peroxidase (HRP) mother solution and 45 ul of 100 mM benzylamine were tanken and added to 4.3875 ml of 1× reaction buffer.
4) After 30 min, 25 μl of the substrate working solution was added to a 384-well plate, and a final concentration was 100 μM Amplex Red reagent+0.5 U/mL HRP+0.5 mM benzylamine, respectively.
5) The reaction was carried out in the dark at room temperature for 60 minutes, and the fluorescence value was measured by Envision: the excitation wave was 535 nm, and the emission wave was 590 nm.
6) Inhibition rate calculation formula: % inhibition rate=(1−(test hole minus background−positive control well minus background)/(negative control well minus background-positive control well minus background))*100
7) The data were analyzed with Prism. The IC50 of the sample against VAP-1 cells was calculated.

Row | SMILES | IC50 [nM]
78 | Cn1nc(-c2ccc(OC/C(=C/F)CN)cc2Cl)nc1N1CCOCC1 [WX107] | 1.5
79 | NC/C(=C\F)COc1ccc(-c2nc(C3CC3)n(CC(F)(F)F)n2)cc1 [WX113] | 0.9
80 | NC/C(=C\F)COc1ccc(-c2nc(C3CC3)n[nH]2)cc1 [WX034] | 0.4
81 | CCn1nc(C2(F)CC2)nc1-c1ccc(OC/C(=C/F)CN)cc1 [WX118] | 0.7
82 | CCCc1n[nH]c(-c2ccc(OC/C(=C/F)CN)cc2)n1 [WX097] | 0.3
83 | Cn1nc(-c2ccc(OC/C(=C/F)CN)cc2)nc1C1CCOCC1 [WX095] | 0.2
84 | NC/C(=C\F)COc1ccc(-c2nc(C3CC3)no2)cc1 [WX016] | 0.2
85 | NC/C(=C\F)COc1ccc(-c2nc(C(F)F)n[nH]2)cc1 [WX088] | 1.6
86 | CC(C)n1nc(-c2ccc(OC/C(=C/F)CN)cc2)nc1C1CC1 [WX091] | 1.3
87 | CC(C)n1nc(C(F)F)nc1-c1ccc(OC/C(=C/F)CN)cc1 [WX109] | 0.7
88 | NC/C(=C\F)COc1ccc(-c2nc(C3(F)CC3)n[nH]2)cc1 [WX087] | 0.8
89 | CCn1nnc(-c2ccc(OC/C(=C/F)CN)cc2)n1 [WX014] | 0.3
90 | Cn1nc(C2(F)CC2)nc1-c1ccc(OC/C(=C/F)CN)cc1 [WX117] | 0.9
91 | Cn1nc(CC(F)(F)F)nc1-c1ccc(OC/C(=C/F)CN)cc1 [WX104] | 0.7
92 | NC/C(=C\F)COc1ccc(-c2nc(C3CC3)n(CCO)n2)cc1 [WX112] | 0.9
